Test results reported in US20200163984A1, “USE OF ISOVALERYL SPIRAMYCIN I, II AND/OR III IN MANUFACTURING MEDICAMENT FOR TREATING AND/OR PREVENTING TUMOR, AND MEDICAMENT” (SHENYANG FUYANG PHARMACEUTICAL TECHNOLOGY CO., LTD., priority 2017, published 2020).
In brackets after ≈: the same amount, converted by molar mass.

Legend:
[1] = tested on: transplanted tumor of human thyroid cancer cell TPC-1; assay: TPC-1 transplanted tumor in nude mice
Protocol: (§1) Then cell concentration was adjusted to 1×10^7/ml with matrigel, then each nude mouse was inoculated subcutaneously with 0.2 ml of cells at its right armpit and recorded as the first day of inoculation. When the tumor grows to be greater than or equal to 100 mm^3, the mice were randomly divided into 11 groups with 6 mice in each group: isovaleryl spiramycin I groups with doses of 25, 50 and 100 mg/kg, isovaleryl spiramycin II groups with doses of 25, 50 and 100 mg/kg, and isovaleryl spiramycin III groups with doses of 25, 50 and 100 mg/kg. Each group was continuously administered intragastrically for 30 days with a dose of 20 ml/kg. The mice were sacrificed the next day after drug withdrawal and the indicators were tested. The long diameter and short diameter of the tumor, and the body weight of each mouse were recorded every 3 days from drug administration to nude mouse sacrifice.
(§2) The body weight of the nude mice and the long diameter (a) and short diameter (b) of the transplanted tumor were measured every 3 days, and the tumor volume (v), relative tumor volume (RTV) and relative tumor proliferation rate (T/C) are calculated respectively according to the following formulas, wherein V=a×b^2/2; RTV=V/V0 (V0 is the tumor volume before administration, V is the tumor volume before sacrifice), and T/C (%)=treatment group RTV/model control group RTV×100%.
(§3) Each mouse was weighed and sacrificed. After the tumor was completely stripped off from the body of the mouse, the non-tumor tissues such as blood stains and fat were removed to weigh the tumor and calculate the tumor growth inhibition rate. The average tumor weight of each group of mice is used as an indicator of efficacy. Tumor growth inhibition rate (%)=(1−the average tumor weight of the treatment group/the average tumor weight of the model group)×100%.

[2] = tested on: transplanted tumor of human esophageal cancer cell TE-1; assay: TE-1 transplanted tumor in nude mice
Protocol: as §1, with “group: a model group, a cyclophosphamide group,” for “group:”
as §2, §3

[3] = tested on: human tissue lymphoma cell U937; conditions: U937, MTT, 48 h
Protocol: (§4) The purpose of the assay is to evaluate the in vitro cell proliferation inhibition or cytotoxic activity of a tested sample.
(§5) U937 and HL-60 were suspension cells, and cells in a logarithmic growth phase were selected and prepared into a 2×10^5/ml cell suspension by a RPMI 1640 culture medium containing 10% fetal bovine serum. And the cell suspension was inoculated in a 96-well culture plate, and each well was 50 μL and the 96-well culture plate was cultured at 37° C. and 5% CO2 for 24 hours. 50 μL of a culture medium containing different concentrations of the tested sample isovaleryl spiramycin I, isovaleryl spiramycin II, or isovaleryl spiramycin III was added in the experimental group, while a culture medium containing the same volume of solvent was added into the control group. Each group was set up with 3 parallel wells that were cultured at 37° C. and 5% CO2 for 48 h. And 10 μL of freshly prepared medium containing 5 mg/ml MTT was added into each well for continuous incubation for 4 hours at 37° C. The crystals were dissolved in 100 μL of a triple solution (SDS 10 g, 10 M HCl 0.1 mL, isobutanol 5 mL, diluted with distilled water to 100 mL), and incubated at 37° C. for 12 hours. The optical density value was measured at 492 nm with a microplate reader.
(§6) The inhibition rate of the medicament on tumor cell growth is calculated according to the following formula:
(§7) Tumor cell growth inhibition rate (%)=[A492 (negative control)−A492 (dosing group)]/A492 (negative control)×100%
(§8) And the half-inhibitory concentration (IC50) of the sample is determined therefrom.

[4] = tested on: human promyelocytic leukemia cell HL-60; conditions: HL-60, MTT, 48 h
Protocol: as §4, §5, §6, §7, §8

[5] = TPC-1, high dose (100 mg/kg in method) i.g. 30 days
[6] = TPC-1, low dose (25 mg/kg in method) i.g. 30 days
[7] = TPC-1, medium dose (50 mg/kg in method) i.g. 30 days
[8] = TE-1, 12.5 mg/kg (low dose) i.g. 30 days
[9] = TE-1, 25 mg/kg (medium dose) i.g. 30 days
[10] = TE-1, 50 mg/kg (high dose) i.g. 30 days

Structure (SMILES): COC1C(OC(C)=O)CC(=O)OC(C)CC=CC=CC(OC2CCC(N(C)C)C(C)O2)C(C)CC(CC=O)C1OC1OC(C)C(OC2CC(C)(O)C(OC(=O)CC(C)C)C(C)O2)C(N(C)C)C1O (stereo not shown) [Isovaleryl spiramycin II, isovaleryl spiramycin II]
- Relative Tumor Proliferation Rate (T/C) [1, 5]: 38.61%
- tumor growth inhibition rate [1, 5]: 62.04%
- Relative Tumor Proliferation Rate (T/C) [1, 6]: 86.15%
- tumor growth inhibition rate [1, 6]: 20.91%
- tumor volume and relative tumor volume compared with the model group ([1]; TPC-1, low, medium and high doses, P<0.05): significantly lower
- Relative Tumor Proliferation Rate (T/C) [1, 7]: 59.08%
- tumor growth inhibition rate [1, 7]: 31.61%
- Inhibition Rate (%) ([1]; dose 25 mg/kg): 20.91%
- Relative Tumor Proliferation Rate (T/C) ([1]; dose 25 mg/kg): 86.15%
- Relative Tumor Volume (RTV) ([1]; dose 25 mg/kg): 14.18 ± 1.70
- Tumor Weight ([1]; dose 25 mg/kg): 1.91 ± 0.33 g
- Tumor Volume (mm3) (d 1) ([1]; dose 25 mg/kg, d 1): 119.12 ± 3.42 mm3
- Tumor Volume (mm3) (d30) ([1]; dose 25 mg/kg, d 30): 1689.63 ± 210.37 mm3
- Inhibition Rate (%) ([1]; dose 50 mg/kg): 31.61%
- Relative Tumor Proliferation Rate (T/C) ([1]; dose 50 mg/kg): 59.08%
- Relative Tumor Volume (RTV) ([1]; dose 50 mg/kg): 9.72 ± 3.02
- Tumor Weight ([1]; dose 50 mg/kg): 1.65 ± 0.32 g
- Tumor Volume (mm3) (d 1) ([1]; dose 50 mg/kg, d 1): 118.54 ± 6.49 mm3
- Tumor Volume (mm3) (d30) ([1]; dose 50 mg/kg, d 30): 1148.57 ± 344.78 mm3
- Inhibition Rate (%) ([1]; dose 100 mg/kg): 62.04%
- Relative Tumor Proliferation Rate (T/C) ([1]; dose 100 mg/kg): 38.61%
- Relative Tumor Volume (RTV) ([1]; dose 100 mg/kg): 6.36 ± 2.38
- Tumor Weight ([1]; dose 100 mg/kg): 0.92 ± 0.42 g
- Tumor Volume (mm3) (d 1) ([1]; dose 100 mg/kg, d 1): 117.30 ± 6.48 mm3
- Tumor Volume (mm3) (d30) ([1]; dose 100 mg/kg, d 30): 754.42 ± 320.69 mm3
- mouse weight compared with the model group ([1]; mouse, in vivo): no significant changes
- Body Weight (g) (d1) ([1]; mouse, in vivo, 25 mg/kg): 20.54 ± 1.45 g
- Body Weight (g) (d30) ([1]; mouse, in vivo, 25 mg/kg): 21.16 ± 1.37 g
- Body Weight (g) (d1) ([1]; mouse, in vivo, 50 mg/kg): 20.07 ± 1.13 g
- Body Weight (g) (d30) ([1]; mouse, in vivo, 50 mg/kg): 12.45 ± 1.63 g
- Body Weight (g) (d1) ([1]; mouse, in vivo, 100 mg/kg): 21.78 ± 1.53 g
- Body Weight (g) (d30) ([1]; mouse, in vivo, 100 mg/kg): 12.11 ± 1.20 g
- Inhibition Rate (tumor growth inhibition rate) [2, 8]: 24.87%
- Relative Tumor Proliferation Rate (T/C) [2, 8]: 70.32%
- Relative Tumor Volume (RTV) [2, 8]: 7.92 ± 6.86
- Tumor Volume (d 1) [2, 8]: 134.33 ± 57.77 mm3
- Tumor Volume (d 30) [2, 8]: 1027.37 ± 363.55 mm3
- Tumor Weight [2, 8]: 1.18 ± 0.60 g
- Inhibition Rate (tumor growth inhibition rate) [2, 9]: 43.78%
- Relative Tumor Proliferation Rate (T/C) [2, 9]: 50.51%
- Relative Tumor Volume (RTV) [2, 9]: 6.99 ± 5.39
- Tumor Volume (d 1) [2, 9]: 195.76 ± 76.95 mm3
- Tumor Volume (d 30) [2, 9]: 1075.36 ± 720.20 mm3
- Tumor Weight [2, 9]: 0.88 ± 0.46 g
- Inhibition Rate (tumor growth inhibition rate) [2, 10]: 72.48%
- Relative Tumor Proliferation Rate (T/C) [2, 10]: 36.49%
- Relative Tumor Volume (RTV) [2, 10]: 6.97 ± 7.85
- Tumor Volume (d 1) [2, 10]: 143.85 ± 16.25 mm3
- Tumor Volume (d 30) [2, 10]: 570.92 ± 293.97 mm3
- Tumor Weight [2, 10]: 0.43 ± 0.26 g
- tumor volume and relative tumor volume compared with the model group ([2]; TE-1, low, medium and high doses, P<0.05): significantly lower
- mouse weight compared with the model group ([2]; mouse, in vivo): no significant changes
- IC50 [3]: 34.92 ± 0.81 µg/mL (≈ 36 µM)
- IC50 [4]: 29.39 ± 1.82 µg/mL (≈ 30.3 µM)

Structure (SMILES): O=P1(N(CCCl)CCCl)NCCCO1 (stereo not shown) [Cyclophosphamide, cyclophosphamide, reference compound]
- Inhibition Rate (%) ([1]; dose 30 mg/kg): 71.29%
- Relative Tumor Proliferation Rate (T/C) ([1]; dose 30 mg/kg): 37.40%
- Relative Tumor Volume (RTV) ([1]; dose 30 mg/kg): 6.16 ± 2.29
- Tumor Weight ([1]; dose 30 mg/kg): 0.69 ± 0.37 g
- Body Weight (g) (d1) ([1]; dose 30 mg/kg, d 1): 21.56 ± 1.54 g
- Tumor Volume (mm3) (d 1) ([1]; dose 30 mg/kg, d 1): 117.10 ± 4.88 mm3
- Body Weight (g) (d30) ([1]; dose 30 mg/kg, d 30): 19.16 ± 1.75 g
- Tumor Volume (mm3) (d30) ([1]; dose 30 mg/kg, d 30): 724.64 ± 285.14 mm3
- Body Weight (d 1) ([2]; TE-1, 30 mg/kg i.g. 30 days): 23.18 ± 1.22 g
- Body Weight (d 30) ([2]; TE-1, 30 mg/kg i.g. 30 days): 20.57 ± 1.14 g
- Inhibition Rate (tumor growth inhibition rate) ([2]; TE-1, 30 mg/kg i.g. 30 days): 71.87%
- Relative Tumor Proliferation Rate (T/C) ([2]; TE-1, 30 mg/kg i.g. 30 days): 30.18%
- Relative Tumor Volume (RTV) ([2]; TE-1, 30 mg/kg i.g. 30 days): 4.00 ± 1.91
- Tumor Volume (d 1) ([2]; TE-1, 30 mg/kg i.g. 30 days): 269.96 ± 92.18 mm3
- Tumor Volume (d 30) ([2]; TE-1, 30 mg/kg i.g. 30 days): 886.22 ± 271.22 mm3
- Tumor Weight ([2]; TE-1, 30 mg/kg i.g. 30 days): 0.44 ± 0.18 g
